Experimental data published in patent publication US20230263786A1, “MODULATION OF DRUG-DRUG INTERACTIONS OF VADADUSTAT” (Akebia Therapeutics, Inc., priority 2020, published 2023).

How the values were obtained:
[1] = system: hemoglobin concentration and red blood cell count; assay: Hemoglobin concentration and red blood cell count after repeated dosing; type: in vivo, rat; conditions: normal rats, repeated oral administration for 14 days
[2] = Plasma pharmacokinetics, 150/300/600 mg once daily, first day; type: in vivo; conditions: male, human, healthy adult men
[3] = [14C]-labeled Compound 1 650 mg metabolism and excretion; type: in vivo, human
Description: Compound 1 is metabolized via UGT, mainly producing O-glucuronide conjugates.
The urinary excretion rate of this drug and acyl glucuronide is less than 1% of the total radioactivity.

CYP2C9 = CYP2C9 (Homo sapiens, UniProt P11712); assay: CYP2C9 inhibition in vitro; type: in vitro ADME
Sequence of CYP2C9 (P11712 whole entry): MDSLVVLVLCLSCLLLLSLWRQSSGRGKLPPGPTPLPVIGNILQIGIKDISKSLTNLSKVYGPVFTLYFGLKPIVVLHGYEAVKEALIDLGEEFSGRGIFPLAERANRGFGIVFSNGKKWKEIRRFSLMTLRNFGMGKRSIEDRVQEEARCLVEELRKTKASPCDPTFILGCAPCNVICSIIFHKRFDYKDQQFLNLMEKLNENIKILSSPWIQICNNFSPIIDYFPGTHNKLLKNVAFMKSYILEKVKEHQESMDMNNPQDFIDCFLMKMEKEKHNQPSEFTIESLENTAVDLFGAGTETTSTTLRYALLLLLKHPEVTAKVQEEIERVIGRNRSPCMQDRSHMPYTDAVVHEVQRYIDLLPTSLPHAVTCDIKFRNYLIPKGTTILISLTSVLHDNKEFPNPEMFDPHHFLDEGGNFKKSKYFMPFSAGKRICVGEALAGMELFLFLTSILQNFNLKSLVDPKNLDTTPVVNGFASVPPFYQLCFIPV

[4] = Phase 1 oral iron interaction study, Cohort 1 (after meal): sodium ferrous citrate, ferric citrate hydrate; type: in vivo, human; conditions: for AUC(0-inf) / AUC(0-t) / Cmax / half-life: male, human, plasma, oral; for AUC(0-inf): read-out: AUC(0-inf), LS geometric mean; for AUC(0-t): read-out: AUC(0-last), LS geometric mean; for Cmax: read-out: Cmax, LS geometric mean; for half-life: read-out: t1/2, LS geometric mean (converted)
Description: The study included 3 periods as follow: • Screening: performed within 4 weeks before the day of administration of the study drug. • Evaluation period: Cohort 1 was confined to the study site for 10-night, 11-day. Cohort 2 and Cohort 3 were confined to the study site for 7 nights and 8 days. • Post-administration tests: performed 3 days after administration of the last dose of the study drug.
In Cohort 1, 21 subjects were further randomized into 3 groups (7 subjects per group) and the evaluation period was divided into 3 periods during the study:
(§1) Administration of vadadustat tablets alone: after fasting for at least 10 hours, subjects would eat breakfast over a period of 10 minutes, then immediately after finishing the meal (5 minutes after finishing the meal), 1 vadadustat tablet (150 mg) would be taken orally with 200 mL of water (extra water may be drunk if more is needed when taking the tablet, and the extra volume would be recorded). After breakfast, subjects would fast until the end of the collection of blood samples at 4 hours after administration of the study drug. Subjects would eat lunch over a period of 20 minutes after blood samples were collected at 4 hours after administration of the study drug. After lunch, subjects would fast until dinner, when they would eat dinner over a period of 20 minutes at 10 hours after administration of the study drug. Subjects would fast from dinner until breakfast the next morning.
as §1, with “and sodium ferrous citrate:” for “alone:”, “mg) and 4 tablets of sodium ferrous citrate (containing 200 mg of iron)” for “mg)”, “tablets,” for “tablet,”
Administration of vadadustat tablets and ferric citrate hydrate: after fasting for at least 10 hours, subjects would eat breakfast over a period of 10 minutes, then immediately after finishing the meal (5 minutes after finishing the meal), 1 vadadustat tablet (150 mg) and 8 tablets of ferric citrate hydrate (containing 2000 mg of ferric citrate) would be taken orally with 200 mL of water (extra water may be drunk if more is needed when taking the tablets, and the extra volume will be recorded). After breakfast, subjects would fast until the end of the collection of blood samples at 4 hours after administration of the study drug. After collection of blood samples at 4 hours after administration of the study drug, subjects would eat lunch over a period of 20 minutes, then immediately after finishing the meal, 8 tablets of ferric citrate hydrate (containing 2000 mg of ferric citrate) would be taken orally with 200 mL of water (extra water may be drunk if more is needed when taking the tablet, and the extra volume would be recorded). Subjects would fast from lunch to before dinner, and at 10 hours after administration of the study drug, subjects will eat dinner over a period of 20 minutes, then immediately after finishing the meal, 8 tablets of ferric citrate hydrate (containing 2000 mg of ferric citrate) would be taken orally with 200 mL of water (extra water may be drunk if more is needed when taking the tablets, and the extra volume would be recorded). Subjects would fast from dinner until breakfast the next morning.

[5] = system: UGT1A1, UGT1A7, UGT1A8 and UGT1A9; assay: UGT isoforms generating O-glucuronide in vitro; type: in vitro ADME, human
clinical = conditions: male, human, plasma, oral, 450 mg
Description: (§2) Pharmacokinetics. […] The ratio of metabolite to parent was calculated for each glucuronide metabolite for AUC(0-t); and AUC(0-inf) and Cmax.
(§3) Comparative Bioavailability. […] Factors incorporated in the model included: Sequence, Subject (Sequence), Period, and Treatment.
(§4) Treatment of Subjects. […] All subjects are dosed on the same day for Day 1 of Confinement Period 1, and are crossed over to the alternate treatment and are dosed on the same day for Day 1 of Confinement Period 2. Both treatments are administered in a fasted state, and a four-day Washout Period separates each Confinement Period.

[6] = Phase I ferrous sulfate tablet interaction study;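 further: crossover in fasted human subjects with four-day washout between periods, plasma glucuronide metabolite pharmacokinetics, ratios computed as metabolite over parent for AUC and Cmax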
Description: as §2, §3, §4

[7] = 150 mg with ferric citrate hydrate (2000 mg ferric citrate)
[8] = 150 mg with sodium ferrous citrate (200 mg iron)
[9] = 150 mg, Compound 1 150 mg alone
[10] = Compound 1+Iron compared to Compound 1 alone

## O=C(O)CNC(=O)c1ncc(-c2cccc(Cl)c2)cc1O [Compound 1, {[5-(3-chlorophenyl)-3-hydroxypyridine-2-carbonyl]amino}acetic acid]
[1]
  hemoglobin concentration: increasing
  red blood cell count: increasing
[2]; 150 mg once daily
  AUC(0-t): 123 ± 30.5 µg·h/mL
  Cmax: 24200 ± 4990 ng/mL
  Tmax: 0.75 h
  half-life: 358 ± 54.8 min
[2]; 300 mg once daily
  AUC(0-t): 289 ± 75.3 µg·h/mL
  Cmax: 44300 ± 10800 ng/mL
  Tmax: 1.95 h
  half-life: 368 ± 45.8 min
[2]; 600 mg once daily
  AUC(0-t): 624 ± 205 µg·h/mL
  Cmax: 84800 ± 22300 ng/mL
  Tmax: 1.98 h
  half-life: 364 ± 25.1 min
[3]; single 650 mg [14C]-labeled, by 72 hours after administration
  total radioactivity administered found in urine: 58.9%
[3]; single oral 650 mg [14C]-labeled Compound 1, healthy adult males
  share of the total radioactivity (AUC0-∞) in plasma: 75%
CYP2C9
  inhibitory effect on CYP2C9: inhibitory effect
[4]; [7]
  Kel, LS geometric mean: 0.16 h⁻¹
  AUC(0-inf): 32400 ng·h/mL
  AUC(0-t): 31100 ng·h/mL
  Cmax: 5180 ng/mL
  half-life: 256 min
[4]; [8]
  Kel, LS geometric mean: 0.13 h⁻¹
  AUC(0-inf): 46600 ng·h/mL
  AUC(0-t): 44400 ng·h/mL
  Cmax: 6960 ng/mL
  half-life: 320 min
[4]; Compound 1 150 mg alone
  Kel, LS geometric mean: 0.13 h⁻¹
[4]; [9]
  AUC(0-inf): 104000 ng·h/mL
  AUC(0-t): 99200 ng·h/mL
  Cmax: 14300 ng/mL
  half-life: 319 min
[5]
  UGT isoforms involved in the generation of O-glucuronide: UGT1A1, UGT1A7, UGT1A8 and UGT1A9
clinical
  AUC(0-inf): 263 µg·h/mL
  AUC(0-t): 253 µg·h/mL
  Cmax: 45300 ng/mL
  Tmax: 3 h
[6]; [10]
  lowering of Cmax: approximately 51%
  lowering of mean plasma AUC (AUC0-t and AUC0-inf): approximately 54%
[6]; single 450 mg dose with or without ferrous sulfate
  AEs, SAEs, deaths: no AEs, SAEs, or deaths
